Measurements as given in ChEMBL document CHEMBL1201862, “PubChem BioAssay data set” (2004).
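These data come from cells grown in 96-well plates and exposed to compound for 48 hours at five concentrations. At the GI50, growth is halved.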 The source made the active and inactive calls. No stated cut-off is given here; in the data, active = GI50 up to about 1.1 µM and inactive = higher.

What was measured:
Assay in all cases: growth of human tumour cells (NCI), 48 h
786-0 = test system: 786-0
A498 = test system: A498
A549 = test system: A549
ACHN = test system: ACHN
BT-549 = test system: BT-549
CAKI-1 = test system: CAKI-1
CCRF-CEM = test system: CCRF-CEM
COLO 205 = test system: COLO 205
DU-145 = test system: DU-145
EKVX = test system: EKVX
HCC 2998 = test system: HCC 2998
HCT-116 = test system: HCT-116
HCT-15 = test system: HCT-15
HL-60 = test system: HL-60
HOP-62 = test system: HOP-62
HOP-92 = test system: HOP-92
HT-29 = test system: HT-29
Hs-578T = test system: Hs-578T
IGROV-1 = test system: IGROV-1
K562 = test system: K562
KM12 = test system: KM12
LOX IMVI = test system: LOX IMVI
M14 = test system: M14
MCF7 = test system: MCF7
MDA-MB-231 = test system: MDA-MB-231
MDA-MB-435 = test system: MDA-MB-435
MDA-N = test system: MDA-N
MOLT-4 = test system: MOLT-4
Malme-3M = test system: Malme-3M
NCI-H226 = test system: NCI-H226
NCI-H23 = test system: NCI-H23
NCI-H460 = test system: NCI-H460
NCI-H522 = test system: NCI-H522
NCI/ADR-RES = test system: NCI/ADR-RES
OVCAR-3 = test system: OVCAR-3
OVCAR-4 = test system: OVCAR-4
OVCAR-5 = test system: OVCAR-5
OVCAR-8 = test system: OVCAR-8
PC-3 = test system: PC-3
RPMI-8226 = test system: RPMI-8226
RXF 393 = test system: RXF 393
SF-268 = test system: SF-268
SF-295 = test system: SF-295
SF-539 = test system: SF-539
SK-MEL-28 = test system: SK-MEL-28
SK-MEL-2 = test system: SK-MEL-2
SK-MEL-5 = test system: SK-MEL-5
SK-OV-3 = test system: SK-OV-3
SN12C = test system: SN12C
SNB-19 = test system: SNB-19
SNB-75 = test system: SNB-75
SR = test system: SR
SW-620 = test system: SW-620
T47D = test system: T47D
TK-10 = test system: TK-10
U-251 = test system: U-251
UACC-257 = test system: UACC-257
UACC-62 = test system: UACC-62
UO-31 = test system: UO-31

Measured: GI50

C=C(C(=O)OC)c1cc2ccccc2n1S(=O)(=O)c1ccccc1
active: CAKI-1 0.82 µM | HOP-92 0.927 µM | NCI-H522 0.891 µM | RXF 393 0.792 µM | SR 0.815 µM
inactive: 786-0 6.05 µM | A498 2.15 µM | A549 3.05 µM | ACHN 1.8 µM | BT-549 1.73 µM | CCRF-CEM 1.24 µM | COLO 205 1.95 µM | DU-145 2.69 µM | EKVX 12.1 µM | HCC 2998 4 µM | HCT-116 6.55 µM | HL-60 1.87 µM | HOP-62 3.43 µM | HT-29 2.91 µM | Hs-578T 4.11 µM | IGROV-1 1.55 µM | K562 2.34 µM | KM12 2.04 µM | LOX IMVI 2.43 µM | M14 2.67 µM | MCF7 1.38 µM | MDA-MB-231 1.98 µM | MDA-MB-435 2.55 µM | MDA-N 2.7 µM | MOLT-4 2.21 µM | Malme-3M 2.11 µM | NCI-H226 2.36 µM | NCI-H23 3.44 µM | NCI-H460 2.21 µM | NCI/ADR-RES 3.37 µM | OVCAR-3 3.4 µM | OVCAR-4 4.82 µM | OVCAR-5 5.68 µM | OVCAR-8 2.44 µM | PC-3 1.96 µM | RPMI-8226 1.28 µM | SF-268 1.84 µM | SF-295 7.66 µM | SF-539 1.62 µM | SK-MEL-28 2.38 µM | SK-MEL-2 2.53 µM | SK-MEL-5 2.14 µM | SK-OV-3 11.3 µM | SN12C 2.67 µM | SNB-19 12.1 µM | SNB-75 3.3 µM | SW-620 2.09 µM | T47D 1.7 µM | TK-10 1.57 µM | U-251 1.92 µM | UACC-257 4.86 µM | UACC-62 4.52 µM | UO-31 2.36 µM
1.76 µM: HCT-15

Nc1ncnc2c1nc(Cl)n2C1OC(CO)C(O)C1O (configuration not stated)
active: A549 0.991 µM | ACHN 0.489 µM | CCRF-CEM 0.607 µM | COLO 205 1.11 µM | DU-145 0.714 µM | HCC 2998 0.556 µM | HCT-116 0.352 µM | HL-60 0.181 µM | HT-29 0.649 µM | IGROV-1 0.653 µM | K562 0.347 µM | LOX IMVI 0.424 µM | M14 0.9 µM | MCF7 0.562 µM | MOLT-4 0.474 µM | NCI-H460 0.414 µM | NCI-H522 0.546 µM | OVCAR-8 1.11 µM | RXF 393 0.213 µM | T47D 0.574 µM | TK-10 0.502 µM | UACC-62 0.966 µM | UO-31 0.906 µM
0.283 µM: HCT-15
inactive: 786-0 1.79 µM | A498 4.52 µM | BT-549 3.15 µM | CAKI-1 1.21 µM | EKVX 5.7 µM | HOP-62 8.28 µM | HOP-92 9.08 µM | Hs-578T 15.3 µM | KM12 2.04 µM | MDA-MB-231 6.95 µM | MDA-MB-435 2.21 µM | MDA-N 2.94 µM | Malme-3M 27.2 µM | NCI-H226 1.63 µM | NCI-H23 1.95 µM | NCI/ADR-RES 1.41 µM | OVCAR-3 2.75 µM | OVCAR-4 5.07 µM | OVCAR-5 2.28 µM | PC-3 1.44 µM | RPMI-8226 1.44 µM | SF-268 12.2 µM | SF-295 5.11 µM | SF-539 4.69 µM | SK-MEL-28 > 45.5 µM | SK-MEL-2 2.02 µM | SK-MEL-5 3.25 µM | SK-OV-3 2.74 µM | SN12C 1.88 µM | SNB-19 22.1 µM | SNB-75 1.49 µM | SR 1.13 µM | SW-620 1.55 µM | U-251 7.59 µM | UACC-257 4.48 µM

CC(C)Cn1cnc2c(NCC(C)O)nc3ccccc3c21 (configuration not stated)
inactive: 786-0 > 100 µM | A498 60.8 µM | A549 > 100 µM | ACHN 41.1 µM | BT-549 > 100 µM | CAKI-1 66.4 µM | CCRF-CEM > 100 µM | COLO 205 51.1 µM | DU-145 89.5 µM | EKVX 29 µM | HCC 2998 > 100 µM | HCT-116 42.5 µM | HL-60 37.5 µM | HOP-62 > 100 µM | HOP-92 27.9 µM | HT-29 36.6 µM | Hs-578T 45.7 µM | IGROV-1 36.8 µM | K562 61.4 µM | KM12 > 100 µM | LOX IMVI 42.6 µM | M14 > 100 µM | MCF7 > 100 µM | MDA-MB-231 > 100 µM | MDA-MB-435 > 100 µM | MDA-N > 100 µM | MOLT-4 63.2 µM | Malme-3M 74.3 µM | NCI-H226 > 100 µM | NCI-H23 > 100 µM | NCI-H460 > 100 µM | NCI-H522 > 100 µM | NCI/ADR-RES > 100 µM | OVCAR-3 > 100 µM | OVCAR-4 > 100 µM | OVCAR-5 > 100 µM | OVCAR-8 > 100 µM | PC-3 87.7 µM | RPMI-8226 > 100 µM | RXF 393 > 100 µM | SF-268 > 100 µM | SF-295 > 100 µM | SF-539 > 100 µM | SK-MEL-28 > 100 µM | SK-MEL-2 > 100 µM | SK-MEL-5 70.6 µM | SK-OV-3 > 100 µM | SN12C > 100 µM | SNB-19 > 100 µM | SNB-75 56.1 µM | SR 84.5 µM | SW-620 > 100 µM | T47D > 100 µM | TK-10 91.4 µM | U-251 > 100 µM | UACC-257 > 100 µM | UACC-62 52.2 µM | UO-31 38.9 µM
78.3 µM: HCT-15
